Measurements from article PMC12657321, “Pre-clinical evaluation of a potent and effective Pin1-degrading agent in pancreatic cancer” (Molecular Therapy Oncology, 2025).
Non-standard residues stand in square brackets, D forms with d. Residues, ends and D or L forms follow the SMILES beside them. *: point of attachment. Trp(6-Cl) = N[C@@H](Cc1c[nH]c2cc(Cl)ccc12)C(=O)O; Pip = O=C(O)[C@@H]1CCCCN1; ClAc = O=C(CCl)*

Tests used:
human Pin1 = molecular target: T1, human Pin1 (Homo sapiens, UniProt Q13526); test: Denaturation thermal shift measurements (SYPRO Orange); assay type: binding; conditions: thermal denaturation shift of Pin1, 20 μM protein, protein:ligand 1:2, 50 mM phosphate pH 7.5, 150 mM NaCl, 3% DMSO, 10-95°C, quadruplicates
T1 construct: Residues 1–163 of human Pin1 were expressed with a thrombin cleavage site and a HisTag at the N-terminus; 6xHis (N); thrombin cleavage site (N); made in house; host or cells: E. coli
T1 sequence (Q13526 whole entry, the tested form may be a part): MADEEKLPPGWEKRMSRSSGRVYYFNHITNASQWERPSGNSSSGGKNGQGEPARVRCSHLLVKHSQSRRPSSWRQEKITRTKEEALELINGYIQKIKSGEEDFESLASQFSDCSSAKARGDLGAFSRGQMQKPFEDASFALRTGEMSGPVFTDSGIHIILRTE
Description: To assess the ability of our agents to bind and inhibit Pin1, we developed a robust biochemical assay based on the dissociation-enhanced lanthanide fluorescent immunoassay (DELFIA) platform. In our implementation, we used a biotinylated form of a known Pin1-binding peptide (D-peptide) to monitor the ability of test agents to inhibit the interaction between Pin1 and the D-peptide at various incubation times, as described previously.[32] […] In addition, as mentioned above and reported recently, we tested the ability of the agents to reduce Pin1 thermal stability in vitro by thermal denaturation measurements.[32] […] Pin1 unfolding causes a nonspecific interaction between the water-quenched fluorescent dye and the protein’s exposed hydrophobic residues, resulting in increased fluorescence. A shift in the thermal denaturation temperature between the free and bound protein is interpreted as a stabilization or destabilization event induced by the test ligand. […] To further assess whether these agents could be suitable for in vivo efficacy studies, we also performed stability assays in aqueous buffer and in plasma from various species (Table S2, Figure S2). We tested the stability of our agents in plasma from multiple mouse strains as well as in human plasma (Figure S2), given the peptide nature of the compounds. […]

Pin1 in BxPC3 cells [1] = molecular target: T2, Pin1 in BxPC3 cells (Homo sapiens, UniProt Q13526); test: Pin1 recovery after degradation, capillary electrophoresis immunoassay, BxPC3; assay type: cell-based; design: endogenous in cells; host or cells: BxPC3; conditions: BxPC3, 5 μM for 24 h, washed, serum-free media, 48 h after wash; two independent replicates
T2 sequence (Q13526 whole entry): as the sequence (Q13526 whole entry, the tested form may be a part) above
Description: To preliminarily assess the duration of Pin1 degradation in cancer cells, BxPC3 and KPC cells were treated with 164B8 for 24 h, washed, and then incubated in serum-free medium for various time points. Pin1 levels were then measured by capillary electrophoresis (Figure 3).
Figure 3 Western blot-like images of Pin1 recovery after degradation by 164B8 using capillary electrophoresis immunoassay (A) BxPC3 cells were pretreated with either 0.1% DMSO or 5 μM 164B8 for 24 h before washing and incubating in serum-free media to evaluate Pin1 recovery at 0, 6, 12, 24, and 48 h. (B) The experiment was performed in two independent replicates, and the results are plotted with the associated standard deviation. (C and D), as in (A) and (B), respectively, but testing the agents against the KPC cell line.
For capillary electrophoresis immunoassays (Figure 3), following protein quantification via the bicinchoninic acid (BCA) assay, the Jess Simple Western instrument (Protein Simple, Bio-Techne, Minneapolis, MN, USA) was utilized according to the manufacturer’s protocol for the 12–230 kDa separation module (SM-W001, Bio-Techne). […] The resulting data were analyzed using Compass for Simple Western software (v.6.3.0), utilizing the default high dynamic range 4.0 image settings and Gaussian peak fitting to obtain the area under each curve for quantification and analysis.

Pin1 in BxPC3 cells [2] = molecular target: T2, Pin1 in BxPC3 cells; test: Pin1 degradation by western blot in BxPC3 cells; assay type: cell-based; design: endogenous in cells; host or cells: BxPC3, MIA PaCa-2; conditions: BxPC3, 0.5-15 μM for 24 h, Pin1 relative to β-actin
Description: To ascertain that the plasma-stable agent 164B8 retained its ability to induce Pin1 degradation in cells, we tested it in three pancreatic cancer cell lines—human BxPC3 and MIA PaCa-2, and the mouse pancreatic cancer cell line KPC—using western blot analysis (Figure 2).
Figure 2 Degradation of Pin1 in different cell lines in response to 164B8 treatment BxPC3, MIA PaCa-2, and KPC were each treated with 0.1% DMSO and concentrations of 164B8 ranging between 0.5 and 15 μM for 24 h, and Pin1 levels were quantified with respect to β-actin using a specific anti-Pin1 antibody and western blotting (uncropped blots are reported in Figure S6).
At the end of the treatments, cells were lysed with a lysis buffer containing 20 mM Tris (pH 7.4), 1% Triton X-100, 5 mM EDTA, 0.1% sodium dodecyl sulfate (SDS), 1% IGEPAL, 0.5% sodium deoxycholate, 120 mM NaCl, and a protease inhibitor cocktail and PhosSTOP (Sigma-Aldrich). Lysates were then centrifuged at 16,000 × g for 20 min at 4°C, and the supernatants were collected. Protein concentrations were determined using the Pierce BCA Protein Assay Kit (Thermo Fisher Scientific) according to the manufacturer’s protocol. For traditional western blotting (Figure 2), samples were loaded onto precast Bis-Tris gels and subsequently transferred onto PVDF membranes. […]

CNC(=O)[C@H](Cc1c[nH]c2ccccc12)NC(=O)[C@@H]1CCCCN1C(=O)[C@H](Cc1c[nH]c2cc(Cl)ccc12)NC(=O)CCl [164B8] (ClAc-[Trp(6-Cl)]-[Pip]-Trp-NHMe)
ΔTm (°C) (human Pin1): −9.55 ± 0.19 °C | Pin1 levels restored after exposure and wash-out (Pin1 in BxPC3 cells [1]): approximately 50% | DC50 of Pin1 degradation (Pin1 in BxPC3 cells [2]): sub-micromolar
